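96-well plates; 48 h exposure; 5 concentrations. Endpoints by linear interpolation between flanking doses. Not reached: highest tested concentration assigned. TGI marks complete inhibition of growth.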
How the values were obtained:
Assay in all cases: growth of human tumour cells (NCI), 48 h
[1] = test system: HOP-62 NSCLC
[2] = test system: T-47D breast
[3] = test system: UACC-257 melanoma
[4] = test system: IGROV1 ovarian
[5] = test system: SK-OV-3 ovarian
[6] = test system: SR leukemia
[7] = test system: EKVX NSCLC
[8] = test system: SK-MEL-2 melanoma
[9] = test system: U251 CNS
[10] = test system: RXF 393 renal
[11] = test system: MDA-MB-231 breast
[12] = test system: 786-0 renal
[13] = test system: SNB-19 CNS
[14] = test system: HOP-92 NSCLC
[15] = test system: HT29 colon
[16] = test system: CAKI-1 renal
[17] = test system: NCI-H460 lung
[18] = test system: TK-10 renal
[19] = test system: BT-549 breast
[20] = test system: UO-31 renal
[21] = test system: LOX IMVI melanoma
[22] = test system: CCRF-CEM leukemia
[23] = test system: OVCAR-3 ovarian
[24] = test system: SF-539 CNS
[25] = test system: HCT-15 colon
[26] = test system: NCI-H23 lung
[27] = test system: OVCAR-5 ovarian
[28] = test system: HCC-2998 colon
[29] = test system: KM12 colon
[30] = test system: OVCAR-4 ovarian
[31] = test system: NCI/ADR-RES ovarian
[32] = test system: PC-3 prostate
[33] = test system: NCI-H226 lung
[34] = test system: SK-MEL-28 melanoma
[35] = test system: MOLT-4 leukemia
[36] = test system: A498 renal
[37] = test system: K-562 leukemia
[38] = test system: SF-268 CNS
[39] = test system: MCF7 breast
[40] = test system: A549 NSCLC
[41] = test system: SF-295 CNS
[42] = test system: RPMI-8226 leukemia
[43] = test system: MDA-N
[44] = test system: MDA-MB-435
[45] = test system: NCI-H522 lung
[46] = test system: OVCAR-8 ovarian
[47] = test system: SNB-75 CNS
[48] = test system: DU-145 prostate
[49] = test system: SK-MEL-5 melanoma
[50] = test system: UACC-62 melanoma
[51] = test system: ACHN renal
[52] = test system: HCT-116 colon
[53] = test system: M14 melanoma
[54] = test system: COLO 205 colon
[55] = test system: SN12C renal
[56] = test system: SW-620 colon
[57] = test system: MALME-3M melanoma
[58] = test system: HS 578T breast

## CN(C)C(=O)Oc1ccc(-c2cn3cc(NC(=O)c4ccccc4)ccc3n2)cc1
[1]
  TGI: > 100 µM
[2]
  TGI: > 100 µM
[3]
  TGI: > 100 µM
[4]
  TGI: > 100 µM
[5]
  TGI: > 100 µM
[6]
  TGI: > 100 µM
[7]
  TGI: > 100 µM
[8]
  TGI: > 100 µM
[9]
  TGI: > 100 µM
[10]
  TGI: > 100 µM
[11]
  TGI: > 100 µM
[12]
  TGI: > 100 µM
[13]
  TGI: > 100 µM
[14]
  TGI: > 100 µM
[15]
  TGI: > 100 µM
[16]
  TGI: > 100 µM
[17]
  TGI: > 100 µM
[18]
  TGI: > 100 µM
[19]
  TGI: > 100 µM
[20]
  TGI: > 100 µM
[21]
  TGI: > 100 µM
[22]
  TGI: > 100 µM
[23]
  TGI: > 100 µM
[24]
  TGI: > 100 µM
[25]
  TGI: > 100 µM
[26]
  TGI: > 100 µM
[27]
  TGI: > 100 µM
[28]
  TGI: > 100 µM
[29]
  TGI: > 100 µM
[30]
  TGI: > 100 µM
[31]
  TGI: > 100 µM
[32]
  TGI: > 100 µM
[33]
  TGI: > 100 µM
[34]
  TGI: > 100 µM
[35]
  TGI: > 100 µM
[36]
  TGI: > 100 µM
[37]
  TGI: > 100 µM
[38]
  TGI: > 100 µM
[39]
  TGI: > 100 µM
[40]
  TGI: > 100 µM
[41]
  TGI: > 100 µM
[42]
  TGI: > 100 µM
[43]
  TGI: > 100 µM
[44]
  TGI: > 100 µM
[45]
  TGI: > 100 µM
[46]
  TGI: > 100 µM
[47]
  TGI: > 100 µM
[48]
  TGI: > 100 µM
[49]
  TGI: 74.1 µM
[50]
  TGI: > 100 µM
[51]
  TGI: > 100 µM
[52]
  TGI: > 100 µM
[53]
  TGI: > 100 µM
[54]
  TGI: 32 µM
[55]
  TGI: > 100 µM
[56]
  TGI: > 100 µM

## CCOC(=O)/C=C1\c2ccccc2C(=O)N1CC(=O)OCC
[1]
  TGI: > 100 µM
[2]
  TGI: > 100 µM
[3]
  TGI: > 100 µM
[4]
  TGI: > 100 µM
[5]
  TGI: > 100 µM
[7]
  TGI: > 100 µM
[8]
  TGI: > 100 µM
[9]
  TGI: > 100 µM
[10]
  TGI: > 100 µM
[11]
  TGI: > 100 µM
[12]
  TGI: > 100 µM
[13]
  TGI: > 100 µM
[14]
  TGI: > 100 µM
[16]
  TGI: > 100 µM
[18]
  TGI: > 100 µM
[19]
  TGI: > 100 µM
[20]
  TGI: > 100 µM
[57]
  TGI: > 100 µM
[21]
  TGI: > 100 µM
[22]
  TGI: > 100 µM
[23]
  TGI: > 100 µM
[25]
  TGI: > 100 µM
[26]
  TGI: > 100 µM
[27]
  TGI: > 100 µM
[29]
  TGI: > 100 µM
[30]
  TGI: > 100 µM
[31]
  TGI: > 100 µM
[32]
  TGI: > 100 µM
[33]
  TGI: > 100 µM
[34]
  TGI: > 100 µM
[35]
  TGI: > 100 µM
[36]
  TGI: > 100 µM
[37]
  TGI: > 100 µM
[38]
  TGI: > 100 µM
[40]
  TGI: > 100 µM
[41]
  TGI: > 100 µM
[42]
  TGI: > 100 µM
[43]
  TGI: > 100 µM
[44]
  TGI: > 100 µM
[45]
  TGI: > 100 µM
[46]
  TGI: > 100 µM
[47]
  TGI: > 100 µM
[48]
  TGI: > 100 µM
[49]
  TGI: > 100 µM
[50]
  TGI: > 100 µM
[51]
  TGI: > 100 µM
[52]
  TGI: > 100 µM
[53]
  TGI: > 100 µM
[54]
  TGI: > 100 µM
[55]
  TGI: > 100 µM
[56]
  TGI: > 100 µM
[58]
  TGI: > 100 µM
